In assay [1] the test system is SARS-CoV-2. Briefly: (§1) Functional immunofluorescence assay to measure dose dependent changes in antiviral-drug inhibitory efficacy against hCoV-19/USA-WA1/2020 in iPSC-Pneumocyte cells which are seeded prior to treatment, then infected with hCoV-19/USA-WA1/2020. Cells are fixed with 10 % formaldehyde, washed with PBS, permeabilized with permeabilization buffer, then washed with wash buffer. The cells are incubated with nucleoprotein primary antibody IC7C7. Following primary staining, cells are washed with wash buffer and incubated in a solution of with Alexa fluor 488 and DAPI. Infected and uninfected cells are visualized and analyzed by Gen5 software. The assay has been performed by Icahn School of Medicine at Mount Sinai. Format: organism-based, Homo sapiens.

In assay [2] the test system is SARS-CoV-2. The assay is described as §1, with “hCoV-19/USA-WA1/2020 in HeLa-ACE2 cells which” for “hCoV-19/USA-WA1/2020 in iPSC-Pneumocyte cells which”, “prior to drug treatment, then” for “prior to treatment, then”. The class given is organism-based, Homo sapiens.
The mark [3] stands for this setting: Severe acute respiratory syndrome coronavirus 2, Pneumocyte.
The mark [4] stands for this setting: Severe acute respiratory syndrome coronavirus 2, HeLa-ACE2.

SMILES strings stand for the structures. pEC50: −log10 of the molar value.

Take `CC(C)[C@H](Nc1ncnc2[nH]c(-c3cnn(CC(N)=O)c3)cc12)c1ccc2c(c1)S(=O)(=O)CCC2`: the negative-log EC50 (pEC50) in assay [1] (setting [3]) was less than 4.30; in assay [2] (setting [4]) it was less than 4.70. Further, the EC90 is greater than 50 µM in assay [1] (Severe acute respiratory syndrome coronavirus 2, Pneumocyte, Baseline response 0 %, Hill slope -0.706, Maximum measured 119.318 %, Maximum response 100 %, Minimum measured 70.174 %, R squared 0.133) and greater than 20 µM in assay [2] (Severe acute respiratory syndrome coronavirus 2, HeLa-ACE2, Baseline response 0 %, Hill slope 1.066, Maximum measured 108.399 %, Maximum response 100 %, Minimum measured 92.21 %, R squared 0.046).

Consider `CNC(=O)Cn1cc(-c2cc3c(N[C@H](c4ccc5c(c4)S(=O)(=O)CCC5)C(C)C)ncnc3[nH]2)cn1`, for which the pEC50 in assay [1] (setting [3]) was less than 4.30; in assay [2] (setting [4]), less than 4.70. The concentration for an effect of 90% (EC90) is greater than 50 µM in assay [1] (Severe acute respiratory syndrome coronavirus 2, Pneumocyte, Baseline response 0 %, Hill slope -0.24, Maximum measured 106.027 %, Maximum response 100 %, Minimum measured 60.326 %, R squared 0.31) and greater than 20 µM in assay [2] (Severe acute respiratory syndrome coronavirus 2, HeLa-ACE2, Baseline response 0 %, Hill slope 0.543, Maximum measured 108.143 %, Maximum response 100 %, Minimum measured 92.194 %, R squared 0.052).

As for `CC(C)[C@@H](Nc1ncnc2[nH]c(-c3cnn(C)n3)cc12)c1ccc2c(c1)OCCO2`, the pEC50 in assay [1] (setting [3]) is 4.88; in assay [2] (setting [4]), 5.27; in assay [2] (hela-ace2), 5.18. Moreover, the EC90 in assay [1] (Severe acute respiratory syndrome coronavirus 2, Pneumocyte, Baseline response 0 %, EC90 CI (lower) 0.166 uM, EC90 CI (upper) 294.285 uM, Hill slope -3.414, Maximum measured 157.709 %, Maximum response 100 %, Minimum measured 4.934 %, R squared 0.471) is 25.3 µM; in assay [2] (Severe acute respiratory syndrome coronavirus 2, HeLa-ACE2, Baseline response 0 %, Hill slope -0.7, Maximum measured 92.76 %, Maximum response 100 %, Minimum measured 27.109 %, R squared 0.91) it was greater than 20 µM; in assay [2] (Severe acute respiratory syndrome coronavirus 2, HeLa-ACE2, Baseline response 0 %, Hill slope -0.882, Maximum measured 101.658 %, Maximum response 100 %, Minimum measured 24.481 %, R squared 0.934), greater than 20 µM.

Regarding `CC(C)[C@@H](Nc1ncnc2[nH]c(-c3cnn(CC(N)=O)c3)cc12)c1ccc2c(c1)OCCO2`, the pEC50 in assay [1] (setting [3]) is 4.43; in assay [2] (setting [4]), less than 4.30. The EC90 in assay [1] (Severe acute respiratory syndrome coronavirus 2, Pneumocyte, Baseline response 0 %, Hill slope -4.011, Maximum measured 96.462 %, Maximum response 100 %, Minimum measured 23.083 %, R squared 0.242) was greater than 50 µM; in assay [2] (Severe acute respiratory syndrome coronavirus 2, HeLa-ACE2, Baseline response 0 %, Hill slope -10.038, Maximum measured 122.799 %, Maximum response 100 %, Minimum measured 73.654 %, R squared 0.191), greater than 50 µM.

Turning to `CCNC(=O)c1cc2c(N[C@@H](c3ccc4c(c3)OCCO4)C(C)C)ncnc2[nH]1`, the negative-log EC50 (pEC50) in assay [1] (setting [3]) was 4.39; in assay [2] (setting [4]), less than 4.70. In addition, the concentration for an effect of 90% (EC90) in assay [1] (Severe acute respiratory syndrome coronavirus 2, Pneumocyte, Baseline response 0 %, Hill slope -8.576, Maximum measured 136.848 %, Maximum response 100 %, Minimum measured 15.577 %, R squared 0.308) was greater than 50 µM; in assay [2] (Severe acute respiratory syndrome coronavirus 2, HeLa-ACE2, Baseline response 0 %, Hill slope -1.909, Maximum measured 113.12 %, Maximum response 100 %, Minimum measured 80.543 %, R squared 0.285) it was greater than 20 µM; in assay [2] (Severe acute respiratory syndrome coronavirus 2, HeLa-ACE2, Maximum measured 94.861 %, Minimum measured 54.623 %) it was greater than 20 µM; in assay [2] (Severe acute respiratory syndrome coronavirus 2, HeLa-ACE2, Maximum measured 122.873 %, Minimum measured 70.184 %), greater than 20 µM.

On to `CNCc1cc(-c2cc3c(N[C@@H](c4ccc5c(c4)S(=O)(=O)NCC5)C(C)C)ncnc3[nH]2)co1`, for which the negative logarithm of the EC50 (pEC50) is 4.51 in assay [1] (setting [3]) and less than 4.70 in assay [2] (setting [4]). For the same compound, the EC90 is greater than 50 µM in assay [1] (Severe acute respiratory syndrome coronavirus 2, Pneumocyte, Baseline response 0 %, Hill slope -1.273, Maximum measured 102.14 %, Maximum response 100 %, Minimum measured 30.967 %, R squared 0.783) and greater than 20 µM in assay [2] (Severe acute respiratory syndrome coronavirus 2, HeLa-ACE2, Baseline response 0 %, Hill slope -0.236, Maximum measured 99.818 %, Maximum response 100 %, Minimum measured 81.688 %, R squared 0.12).

As for `Cc1ncc(-c2cc3c(N[C@@H](c4ccc5c(c4)OCCO5)C(C)C)ncnc3[nH]2)cn1`, the pEC50 in assay [1] (setting [3]) is 4.80; in assay [2] (setting [4]), 5.35; in assay [2] (hela-ace2), 5.35. For the same compound, the 90% effect concentration (EC90) in assay [1] (Severe acute respiratory syndrome coronavirus 2, Pneumocyte, Baseline response 0 %, EC90 CI (lower) 1.051 uM, EC90 CI (upper) 45.178 uM, Hill slope -2.659, Maximum measured 160.084 %, Maximum response 100 %, Minimum measured 9.251 %, R squared 0.626) is 36 µM; in assay [2] (Severe acute respiratory syndrome coronavirus 2, HeLa-ACE2, Baseline response 0 %, Hill slope -0.659, Maximum measured 95.537 %, Maximum response 100 %, Minimum measured 29.329 %, R squared 0.973), greater than 20 µM; in assay [2] (Severe acute respiratory syndrome coronavirus 2, HeLa-ACE2, Baseline response 0 %, Hill slope -1.195, Maximum measured 100.014 %, Maximum response 100 %, Minimum measured 14.25 %, R squared 0.982), greater than 20 µM.

As for `CC(C)[C@@H](Nc1ncnc2[nH]ccc12)c1ccc2c(c1)S(=O)(=O)CCC2`, the pEC50 in assay [1] (setting [3]) is less than 4.30; in assay [1] (pneumocyte), 4.52; in assay [2] (hela-ace2), less than 4.30. The EC90 is greater than 50 µM in assay [1] (Severe acute respiratory syndrome coronavirus 2, Pneumocyte, Baseline response 0 %, Hill slope -1.893, Maximum measured 187.741 %, Maximum response 100 %, Minimum measured 35.01 %, R squared 0.158); greater than 50 µM in assay [1] (Severe acute respiratory syndrome coronavirus 2, Pneumocyte, Maximum measured 138.005 %, Minimum measured 85.609 %); greater than 50 µM in assay [2] (Severe acute respiratory syndrome coronavirus 2, HeLa-ACE2, Baseline response 0 %, Hill slope -1.838, Maximum measured 112.988 %, Maximum response 100 %, Minimum measured 76.031 %, R squared 0.586); greater than 20 µM in assay [2] (Severe acute respiratory syndrome coronavirus 2, HeLa-ACE2, Baseline response 0 %, Hill slope -2.172, Maximum measured 117.108 %, Maximum response 100 %, Minimum measured 66.698 %, R squared 0.616).

What is called pEC50 is −log10 of the EC50, conventionally taken in molar units. In general, EC90 refers to the concentration at which the effect reaches the 90% level. A higher EC90 goes with weaker potency.

The record behind these values is ChEMBL document CHEMBL5441381, “ASAP - In vitro antiviral effect” (2024).
